Results from US9884863B2, “STAT3 inhibitor” (Board of Regents, The University of Texas System, priority 2013, dated 2018).
Where two headings read alike, the source gives them in different places.

Legend:
MCF-7 = experiment: MTS cell proliferation assay, MCF-7; type: cell-based, human
Procedure: Cancer cells (breast cancer cell lines MCF-7, MDA-MB-361, SKBR3 and MDA-MB-231, pancreatic cancer cell lines AsPC-1. […] Proliferation was measured by treating cells with the 3-(4,5-dimethylthiazol-2-yl)-5-(3-carboxymethoxyphenyl)-2-(4-sulfophenyl)-2H-tetrazolium) (MTS) in a CellTiter 96t AQueous Non-Radioactive Cell Proliferation Assay kit from Promega, Madison, Wis., USA). Absorbance of all wells was determined by measuring OD at 550 nm after 1 hr incubation at 37° C. on a 96-well iMark™ Microplate Absorbance Reader (BioRad, Hercules, Calif.). Each individual compound was tested in quadruplicate wells for each concentration, and the results were reported as mean absorption±s.e.
In Vitro Determination of Effects of Synthesized Compounds on Cancer Cell Proliferation. Cancer cells (breast cancer cell lines MCF-7 and MDA-MB-231, pancreatic cancer cell lines AsPC-1 and Panc-1) were […], 0.01, 0.1, 1, 5, 10, […] Proliferation was measured by treating cells with the 3-(4,5-dimethylthiazol-2-yl)-5-(3-carboxymethoxyphenyl)-2-(4-sulfophenyl)-2H-tetrazolium) (MTS) in a CellTiter 96t Aqueous Non-Radioactive Cell Proliferation Assay kit (Promega, Madison, Wis., USA). Absorbance of all wells was determined by measuring OD at 550 nm after 1 h incubation at 37° C. on a 96-well iMark™ Microplate Absorbance Reader (BioRad, Hercules, Calif.). Each individual compound was tested in quadruplicate wells for each concentration.

MDA-MB-231 = experiment: MTS cell proliferation assay, MDA-MB-231; type: cell-based, human; settings: Homo sapiens
Procedure: Cancer cells (breast cancer cell lines MCF-7, MDA-MB-361, SKBR3 and MDA-MB-231, pancreatic cancer cell lines AsPC-1. BxPC3 and Panc-1) were seeded in 96-well plates at a density of 1000-2000 cells/well and treated with DMSO, 0.01, 0.1, 1, 5, 10, and […] of STAT3 individual inhibitors for 72 hrs. Proliferation was measured by treating cells with the 3-(4,5-dimethylthiazol-2-yl)-5-(3-carboxymethoxyphenyl)-2-(4-sulfophenyl)-2H-tetrazolium) (MTS) in a CellTiter 96t AQueous Non-Radioactive Cell Proliferation Assay kit from Promega, Madison, Wis., USA). Absorbance of all wells was determined by measuring OD at 550 nm after 1 hr incubation at 37° C. on a 96-well iMark™ Microplate Absorbance Reader (BioRad, Hercules, Calif.).
In Vitro Determination of Effects of Synthesized Compounds on Cancer Cell Proliferation. Cancer cells (breast cancer cell lines MCF-7 and MDA-MB-231, pancreatic cancer cell lines AsPC-1 and Panc-1) were seeded in 96-well plates at a density of 2×10^3 cells/well and treated with DMSO, 0.01, 0.1, 1, 5, 10, and 100 μM of individual STAT3 inhibitors for 72 h. Proliferation was measured by treating cells with the 3-(4,5-dimethylthiazol-2-yl)-5-(3-carboxymethoxyphenyl)-2-(4-sulfophenyl)-2H-tetrazolium) (MTS) in a CellTiter 96t Aqueous Non-Radioactive Cell Proliferation Assay kit (Promega, Madison, Wis., USA). Absorbance of all wells was determined by measuring OD at 550 nm after 1 h incubation at 37° C. on a 96-well iMark™ Microplate Absorbance Reader (BioRad, Hercules, Calif.). Each individual compound was tested in quadruplicate wells for each concentration. […]

[1] = Homo sapiens, MCF7, 72 h, read-out: IC50 MCF-7 (Table 1)
[2] = MDA-MB-231, 72 h, read-out: IC50 MDA-MB-231 (Table 1)
[3] = Homo sapiens, MCF7, 72 h; read-out: IC50 MCF-7 (Table 1)
[4] = MDA-MB-231, ER-negative breast cancer, 72 hrs, >10 = no effect, read-out: IC50 MDA-MB-231 (Table 1)
[5] = MCF-7, 48 hr, μM concentrations

Row | Compound | IC50 (MCF-7; [3]) | IC50 (MDA-MB-231; [4]) | IC50 (MCF-7; [1]) | IC50 (MDA-MB-231; [2]) | other results
1 | Nc1ccc(NC(=O)c2cc(Cl)ccc2OC2CCNCC2)c(Cl)c1 [HJC-4-23, N-(4-Amino-2-chlorophenyl)-5-chloro-2-(piperidin-4-yloxy)benzamide] |  |  | > 10 µM | > 10 µM | 
2 | O=C(Nc1ccc2c(c1)S(=O)(=O)C=C2)c1cccnc1 [HJC-3-76, N-(1,1-Dioxo-1H-1λ^6-benzo[b]thiophen-6-yl)-nicotinamide] |  |  | 15.3 µM | > 10 µM | 
3 | COc1ccc(C(=O)Nc2ccc3c(c2)S(=O)(=O)CC3OC)cc1 (stereo not shown) [HJC-2-20, 4-Methoxy-N-(3-methoxy-1,1-dioxo-2,3-dihydro-1H-1λ^6-benzo[b]thiophen-6-yl)benzamide] | > 10 µM | > 10 µM |  |  | 
4 | CC(=O)Nc1ccc2c(c1)S(=O)(=O)C=C2 [HJC-1-62, N-(1,1-Dioxo-1H-1λ^6-benzo[b]thiophen-6-yl)acetamide] | > 10 µM | > 10 µM |  |  | 
5 | CN1CCC(Oc2ccc(Cl)cc2C(=O)Nc2ccc3c(c2)S(=O)(=O)C=C3)CC1 [HJC-3-82, 5-Chloro-N-(1,1-dioxo-1H-1λ^6-benzo[b]thiophen-6-yl)-2-(1-methyl-piperidin-4-yloxy) benzamide] |  |  | 3.53 µM | 2.68 µM | 
6 | O=C(Nc1ccc2c(c1)S(=O)(=O)C=C2)c1cc(Cl)ccc1OCCF [HJC-3-99, 5-Chloro-N-(1,1-dioxo-1H-1λ^6-benzo[b]thiophen-6-yl)-2-(2-fluoroethoxy)benzamide] |  |  | 4 µM | 4.42 µM | 
7 | CN(C)CCOc1ccc(Cl)cc1C(=O)Nc1ccc([N+](=O)[O-])cc1Cl [HJC-3-57, 5-Chloro-N-(2-chloro-4-nitro-phenyl)-2-(2-dimethylamino-ethoxy)benzamide] |  |  | > 10 µM | > 10 µM | 
8 | N#C/C(=C\c1ccc(O)c(O)c1)C(=O)Nc1ccc2c(c1)S(=O)(=O)C=C2 [HJC-4-11, 2-Cyano-3-(3,4-dihydroxy-phenyl)-N-(1,1-dioxo-1H-1λ^6-benzo[b]thiophen-6-yl)-acrylamide] |  |  | 4.27 µM | > 10 µM | 
9 | O=C(Nc1ccc2c(c1)S(=O)(=O)C=C2)c1cc(Cl)ccc1OCCBr [Compound 2] |  |  |  |  | IC50 (MCF-7; Homo sapiens, MCF7, read-out: IC50 MCF-7 (Table 2)): > 10 µM; IC50 (MDA-MB-231; MDA-MB-231, read-out: IC50 MDA-MB-231 (Table 2)): > 10 µM
10 | O=C(Nc1ccc([N+](=O)[O-])cc1Cl)c1cc(Cl)ccc1OCCF [HJC-3-98, 5-Chloro-N-(2-chloro-4-nitro-phenyl)-2-(2-fluoro-ethoxy)benzamide] |  |  | > 10 µM | > 10 µM | 
11 | CN(C)CCOc1ccc(Cl)cc1C(=O)Nc1ccc2c(c1)S(=O)(=O)C=C2 [HJC-3-69, 5-Chloro-2-(2-dimethylaminoethoxy)-N-(1,1-dioxo-1H-1λ^6-benzo[b]thiophen-6-yl) benzamide] |  |  | 3.5 µM | 2.69 µM | inhibition on breast cancer cell proliferation (FIG. 1) (MCF-7; [5]): significant inhibition
12 | O=C(Nc1ccc2c(c1)S(=O)(=O)C=C2)c1cc(Cl)ccc1OCCN1CCOCC1 [HJC-3-9, 5-Chloro-N-(1,1-dioxo-1H-1λ^6-benzo[b]thiophen-6-yl)-2-(2-morpholin-4-yl-ethoxy) benzamide] |  |  | 0.49 µM | 5.43 µM | inhibition on breast cancer cell proliferation (FIG. 1) (MCF-7; [5]): significant inhibition
13 | COc1ccc(S(=O)(=O)Nc2ccc3c(c2)S(=O)(=O)C=C3)cc1 [HJC-3-68, N-(1,1-Dioxo-1H-1λ^6-benzo[b]thiophen-6-yl)-4-methoxybenzenesulfonamide] | 3.45 µM | 2.71 µM |  |  | 

Second part, led by results:

Row | IC50 (MCF-7; [3]) | IC50 (MDA-MB-231; [4]) | Compound | IC50 (MCF-7; [1]) | IC50 (MDA-MB-231; [2]) | other results
14 | > 10 µM | > 10 µM | CS(=O)(=O)N1CCN(CCOc2ccc(Cl)cc2C(=O)Nc2ccc([N+](=O)[O-])cc2Cl)CC1 [HJC-2-55, 5-Chloro-N-(2-chloro-4-nitrophenyl)-2-[2-(4-methanesulfonylpiperazin-1-yl)-ethoxy]benzamide] |  |  | 
15 | > 10 µM | > 10 µM | CC(=O)Nc1ccc(NC(=O)c2cc(Cl)ccc2OC2CCNCC2)c(Cl)c1 [HJC-4-32, N-(4-Acetylamino-2-chloro-phenyl)-5-chloro-2-(piperidin-4-yloxy)benzamide] |  |  | 
16 | > 10 µM | > 10 µM | CS(=O)(=O)Nc1ccc(NC(=O)c2cc(Cl)ccc2OC2CCNCC2)c(Cl)c1 [HJC-4-35-2] |  |  | 
17 | > 10 µM | > 10 µM | CS(=O)(=O)NCCOc1ccc(Cl)cc1C(=O)Nc1ccc([N+](=O)[O-])cc1Cl [HJC-4-26, 5-Chloro-N-(2-chloro-4-nitrophenyl)-2-(2-methanesulfonylaminoethoxy)benzamide] |  |  | 
18 | 2.97 µM | 6.21 µM | O=C(Nc1ccc2c(c1)S(=O)(=O)C=C2)c1cnc2ccccc2c1 [HJC-3-91, Quinoline-3-carboxylic acid (1,1-dioxo-1H-1λ^6-benzo[b]thiophen-6-yl)amide] |  |  | inhibition on breast cancer cell proliferation (FIG. 1) (MCF-7; [5]): significant inhibition
19 | 4.21 µM | 2.85 µM | O=C(Nc1ccc2c(c1)S(=O)(=O)C=C2)c1cc(Cl)ccc1OC1CCNCC1 [HJC-4-15, 5-Chloro-N-(1,1-dioxo-1H-1λ^6-benzo[b]thiophen-6-yl)-2-(piperidin-4-yloxy)benzamide] |  |  | 
20 | > 10 µM | > 10 µM | CS(=O)(=O)N(c1ccc(NC(=O)c2cc(Cl)ccc2OC2CCNCC2)c(Cl)c1)S(C)(=O)=O [HJC-4-35-1] |  |  | 
21 | 3.64 µM | > 10 µM | O=C(Nc1ccc2c(c1)S(=O)(=O)C=C2)c1ccnc(Br)c1 [HJC-3-95, 2-Bromo-N-(1,1-dioxo-1H-1λ^6-benzo[b]thiophen-6-yl)-isonicotinamide] |  |  | 
22 | > 10 µM | 5.87 µM | CC(=O)N1CCC(Oc2ccc(Cl)cc2C(=O)Nc2ccc([N+](=O)[O-])cc2Cl)CC1 [HJC-4-22, 2-(1-Acetylpiperidin-4-yloxy)-5-chloro-N-(2-chloro-4-nitrophenyl)benzamide] |  |  | 
23 | > 10 µM | > 10 µM | CN1CCN(CCOc2ccc(Cl)cc2C(=O)Nc2ccc([N+](=O)[O-])cc2Cl)CC1 [HJC-3-65, 5-Chloro-N-(2-chloro-4-nitrophenyl)-2-[2-(4-methylpiperazin-1-yl)-ethoxy]benzamide] |  |  | 
24 | 9.37 µM | 5.3 µM | NCCOCCOc1ccc(Cl)cc1C(=O)Nc1ccc([N+](=O)[O-])cc1Cl [HJC-2-58, 2-[2-(2-Amino-ethoxy)-ethoxy]-5-chloro-N-(2-chloro-4-nitro-phenyl)benzamide] |  |  | 
25 | > 10 µM | > 10 µM | CS(=O)(=O)N1CCC(Oc2ccc(Cl)cc2C(=O)Nc2ccc([N+](=O)[O-])cc2Cl)CC1 [HJC-4-24, 5-Chloro-N-(2-chloro-4-nitrophenyl)-2-(1-methanesulfonylpiperidin-4-yloxy)benzamide] |  |  | 
26 | > 10 µM | > 10 µM | CC(=O)NCCOc1ccc(Cl)cc1C(=O)Nc1ccc([N+](=O)[O-])cc1Cl [HJC-4-25, 2-(2-Acetylaminoethoxy)-5-chloro-N-(2-chloro-4-nitrophenyl)benzamide] |  |  | 
27 | 4.08 µM | 2.86 µM | CN1CCN(CCOc2ccc(Cl)cc2C(=O)Nc2ccc3c(c2)S(=O)(=O)C=C3)CC1 [HJC-3-78, 5-Chloro-N-(1,1-dioxo-1H-1λ^6-benzo[b]thiophen-6-yl)-2-[2-(4-methylpiperazin-1-yl)-ethoxy]benzamide] |  |  | 
28 | 6.7 µM | > 10 µM | O=C(Nc1ccc2c(c1)S(=O)(=O)C=C2)c1ccccn1 [HJC-3-20, Pyridine-2-carboxylic acid (1,1-dioxo-1H-1λ^6-benzo[b]thiophen-6-yl)amide] |  |  | 
29 | > 10 µM | 13.8 µM | COC1CS(=O)(=O)c2cc(NC(=O)c3cc(-c4ccccc4)nc4ccccc34)ccc21 (stereo not shown) [HJC-1-57, 2-Phenyl-quinoline-4-carboxylic acid (3-methoxy-1,1-dioxo-2,3-dihydro-1H-1λ^6-benzo[b]thiophen-6-yl)amide] |  |  | 
